# From patent US10940139B2, “Compounds that interact with the Ras superfamily for the treatment of cancers, inflammatory diseases, rasopathies, and fibrotic disease” (Shy Therapeutics LLC, priority 2017, dated 2021)
# Assays:
# Assay in all cases: Ras GTP binding domain inhibition assay (labeled GTP)
# KRas G12D mutant protein = KRas G12D mutant protein (Homo sapiens (Human), UniProt P01116, G12D); conditions: 20 μM compound; KRas G12D; read-out: % Inhibition at 20 μM of K-Ras mutant and wild-type protein, KRas G12D
# KRas wild type = KRas wild type (Homo sapiens (Human), UniProt P01116); conditions: 20 μM compound; KRas wild type; read-out: % Inhibition at 20 μM of K-Ras mutant and wild-type protein, KRas wild type
# Procedure, shortened: (§1)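 Ni-plate capture of His-KRas (3-10 μg/ml, o/n, 4° C); Tris pH 7.5/MgCl2/DTT buffer, 1% DMSO. Cpd 20 μM or titration, 3 h RT. Cy3/Cy5-GTP 45 min RT, wash, fluorescence of bound GTP.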
# KRas G12C mutant = KRas G12C mutant (Homo sapiens (Human), UniProt P01116, G12C); conditions: 20 μM compound; KRas G12C; read-out: % Inhibition at 20 μM of K-Ras mutant and wild-type protein, KRas G12C
# Procedure, shortened: as §1
# Sequence of KRas G12C mutant (P01116-2 other isoform, or with tags, fused parts or gaps G12C): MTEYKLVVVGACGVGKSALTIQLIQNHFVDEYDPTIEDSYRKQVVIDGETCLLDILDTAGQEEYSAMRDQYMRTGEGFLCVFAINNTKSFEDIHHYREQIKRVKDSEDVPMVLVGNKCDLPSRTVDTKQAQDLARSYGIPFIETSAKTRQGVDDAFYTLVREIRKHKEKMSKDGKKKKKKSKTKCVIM
# Sequence of KRas wild type (P01116-2 other isoform, or with tags, fused parts or gaps): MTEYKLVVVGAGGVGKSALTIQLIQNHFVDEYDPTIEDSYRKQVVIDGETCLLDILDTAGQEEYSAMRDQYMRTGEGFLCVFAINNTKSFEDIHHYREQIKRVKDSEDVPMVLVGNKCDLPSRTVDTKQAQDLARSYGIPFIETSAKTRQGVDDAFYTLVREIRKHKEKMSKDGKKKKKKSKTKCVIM
# Sequence of KRas G12D mutant protein (P01116-2 other isoform, or with tags, fused parts or gaps G12D): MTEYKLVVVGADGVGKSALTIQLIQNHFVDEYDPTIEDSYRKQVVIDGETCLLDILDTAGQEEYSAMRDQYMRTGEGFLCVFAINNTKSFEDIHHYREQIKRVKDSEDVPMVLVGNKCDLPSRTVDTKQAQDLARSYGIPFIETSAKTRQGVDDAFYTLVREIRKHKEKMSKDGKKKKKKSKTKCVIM
SMILES,inhibition at 20 µM (KRas G12D mutant protein),inhibition at 20 µM (KRas wild type),inhibition at 20 µM (KRas G12C mutant)
Cc1sc2c(O)nc(-c3nccn3C)nc2c1-c1cccc(C(F)(F)F)c1 [drawing 3599],1 to 25%,1 to 25%,1 to 25%
Cc1sc2c(O)nc(-c3nccn3C)nc2c1-c1ccc(OCC(C)C)nc1 [drawing 3600],1 to 25%,1 to 25%,1 to 25%
COc1ccc(-c2c(C)sc3c(O)nc(-c4nccn4C)nc23)cn1 [drawing 3601],1 to 25%,1 to 25%,1 to 25%
Cn1cnc(-c2nc(O)c3scc(-c4cccc(C(F)(F)F)c4)c3n2)c1 [drawing 3604],25 to 50%,51 to 75%,25 to 50%
CC(C)COc1ccc(-c2csc3c(O)nc(-c4cn(C)cn4)nc23)cn1 [drawing 3605],1 to 25%,25 to 50%,25 to 50%
Cn1cnc(-c2nc(O)c3scc(-c4cccc(OC(F)(F)F)c4)c3n2)c1 [drawing 3606],25 to 50%,25 to 50%,1 to 25%
Oc1nc(-c2ccncn2)nc2c(-c3cccc(C(F)(F)F)c3)csc12 [drawing 3607],1 to 25%,25 to 50%,25 to 50%
Oc1nc(-c2ncccn2)nc2c(-c3cccc(C(F)(F)F)c3)csc12 [drawing 3608],25 to 50%,51 to 75%,25 to 50%
Cn1ccnc1-c1nc(O)c2scc(-c3ccccc3)c2n1 [drawing 3614],51 to 75%,25 to 50%,25 to 50%
Cn1ccnc1-c1nc(O)c2scc(-c3ccccc3Cl)c2n1 [drawing 3615],25 to 50%,25 to 50%,25 to 50%
COCCNc1nc(-c2ccccn2)nc2sc(-c3ccccc3)c(-c3ccccn3)c12 [drawing 3620],1 to 25%,0%,1 to 25%
Cc1sc2c(O)nc(-c3nccn3C)nc2c1-c1ccc(F)cc1F [drawing 3621],1 to 25%,1 to 25%,1 to 25%
COCCNc1nc(-c2nccn2C)nc2sc(-c3ccccc3)c(-c3ccccn3)c12 [drawing 3622],25 to 50%,51 to 75%,25 to 50%

# The remaining lines, values ahead:
inhibition at 20 µM (KRas G12D mutant protein),inhibition at 20 µM (KRas wild type),inhibition at 20 µM (KRas G12C mutant),SMILES
51 to 75%,25 to 50%,1 to 25%,Cn1ccnc1-c1nc(O)c2scc(-c3cccc(OC(F)(F)F)c3)c2n1 [drawing 3603]
25 to 50%,25 to 50%,25 to 50%,CC(C)Oc1ccc(-c2csc3c(O)nc(-c4nccn4C)nc23)cc1F [drawing 3609]
51 to 75%,25 to 50%,1 to 25%,Cc1sc2c(O)nc(-c3nccn3C)nc2c1-c1ccc(OC(C)C)c(F)c1 [drawing 3610]
25 to 50%,25 to 50%,1 to 25%,CC(C)Oc1ccc(-c2c(-c3ccccc3)sc3c(O)nc(-c4nccn4C)nc23)cc1F [drawing 3611]
76 to 100%,25 to 50%,25 to 50%,CC(C)COc1ccc(-c2csc3c(O)nc(-c4nccn4C)nc23)cn1 [drawing 3612]
51 to 75%,25 to 50%,25 to 50%,COc1ccc(-c2csc3c(O)nc(-c4nccn4C)nc23)cn1 [drawing 3613]
25 to 50%,1 to 25%,1 to 25%,Cn1ccnc1-c1nc(O)c2scc(-c3ccc(F)cc3F)c2n1 [drawing 3616]
25 to 50%,25 to 50%,25 to 50%,Cn1ccnc1-c1nc(O)c2scc(-c3cccc(Cl)c3)c2n1 [drawing 3617]
25 to 50%,25 to 50%,0%,COC(C)(C)c1ccc(-c2csc3c(O)nc(-c4nccn4C)nc23)cc1 [drawing 3618]
1 to 25%,1 to 25%,25 to 50%,Cn1ccnc1-c1nc(O)c2scc(-c3ccc(C(C)(C)C)cc3)c2n1 [drawing 3619]
